Laboratory results: patent US20210386505A1, “BACTERIAL BIOFILM STAINING DEVICE AND METHODS OF USE” (University of Utah Research Foundation, priority 2020, published 2021)

Tests used:
[1] = system: Pseudomonas aeruginosa (ATCC 27853) biofilms; assay: Transmission light photometry of MB bound to stained biofilms; format: cell-based; conditions: P. aeruginosa biofilm, 0.01% MB, 5 min stain, n=6
Experimental: (§1) Staphylococcus aureus (ATCC 6538) and Pseudomonas aeruginosa (ATCC 27853) biofilms were grown for the respective experiments (2 days) in a CBR 90 CDC biofilm reactor (BioSurface Technologies Corporation, Bozeman, Mont.) on either titanium, cobalt chromium, polyether ether ketone (PEEK), and polyethylene (PE) coupons using previously established methods. Briefly, a 0.5 McFarland standard (˜7.5×10^7 colony forming units (CFU)) was made from a 24 hour tryptic soy agar plate culture; 1 mL was then used to inoculate 500 mL of 100% Brain Heart Infusion (BHI) broth in the biofilm reactor. The reactor and its contents were incubated at 34° C. on a hot plate with baffle rotation for 24 hours. […] Quantification of biofilm bioburden was performed on representative coupons from each reactor by dispersing the respective biofilm into 2 mL of fresh 1× phosphate buffered saline (PBS) following an established protocol: sequentially vortexing for 1 minute, sonicating for 10 minutes and vortexing […]. The CFUs were calculated by 10-fold serial dilution plating and colony counting. […]
(§2) Transmission photometry was used to determine the amount of MB bound to biofilms grown and stained using the above protocols. […] The exposure was fixed for all images analyzed; ambient light sources were eliminated by darkening the room. […]

[2] = system: Staphylococcus aureus (ATCC 6538) biofilms; assay: as above; format: cell-based; conditions: S. aureus biofilm, 0.01% MB, 5 min stain, n=6
Experimental: as §1, §2

S. aureus biofilms = assay: Visual MB staining of biofilms on orthopedic coupons, confirmed by SEM; format: cell-based, Staphylococcus aureus; conditions: S. aureus biofilms on titanium, cobalt chromium, polyethylene, PEEK coupons; dilute MB
Experimental: (§3) Staphylococcus aureus (ATCC 6538) and Pseudomonas aeruginosa (ATCC 27853) biofilms were grown for the respective experiments (2 days) in a CBR 90 CDC biofilm reactor (BioSurface Technologies Corporation, Bozeman, Mont.) on either titanium, cobalt chromium, polyether ether ketone (PEEK), and polyethylene (PE) coupons using previously established methods. Briefly, a 0.5 McFarland standard (˜7.5×10^7 colony forming units (CFU)) was made from a 24 hour tryptic soy agar plate culture; 1 mL was then used to inoculate 500 mL of 100% Brain Heart Infusion (BHI) broth in the biofilm reactor. The reactor and its contents were incubated at 34° C. on a hot plate with baffle rotation for 24 hours. After 24 hours, the reactor was flushed continuously with 10% BHI at 6.94 mL/min for the subsequent 24 hours. Prior to subsequent work, the biofilm coupons were removed aseptically and rinsed in PBS. Quantification of biofilm bioburden was performed on representative coupons from each reactor by dispersing the respective biofilm into 2 mL of fresh 1× phosphate buffered saline (PBS) following an established protocol: sequentially vortexing for 1 minute, sonicating for 10 minutes and vortexing […]. The CFUs were calculated by 10-fold serial dilution plating and colony counting. […]

P. aeruginosa biofilms = assay: as above; format: cell-based, Pseudomonas aeruginosa; conditions: P. aeruginosa biofilms on titanium, cobalt chromium, polyethylene, PEEK coupons; dilute MB
Experimental: as §3

With `CN(C)c1ccc2nc3ccc(=[N+](C)C)cc-3sc2c1` [MB, methylene blue] the “number of MB molecules per CFU” value [1] was 2.84×10^7 molecules/CFU, the “number of MB molecules per CFU” value [2] was 6.95×10^6 molecules/CFU and the “visual staining of biofilm” value (S. aureus biofilms) was “visually turned blue”. The “visual staining of biofilm” value (P. aeruginosa biofilms) was “visually turned blue”.
